Source: patent US6716881B2, “Carbanilides used as pesticides” (Bayer Aktiengesellschaft, priority 1996, dated 2004)

System: Venturia inaequalis
Assay: Venturia test (apple)/protective (Example B, spray liquor concentration)
Format: in vivo
Conditions: protective, 100 ppm in spray liquor, evaluation 12 days after inoculation
Protocol: Venturia Test (Apple)/Protective
To produce a suitable preparation of active compound, 1 part by weight of active compound is mixed with the stated amounts of solvent and emulsifier, and the concentrate is diluted with water to the desired concentration.
To test for protective activity, young plants are sprayed with the preparation of active compound until dew-moist. After the spray-coating has dried on, the plants are inoculated with an aqueous conidia suspension of the causative organism of apple scab Venturia inaequalis and then remain in an incubation cabin at 20° C. and 100% relative atmospheric humidity for 1 day.
The plants are then placed in a greenhouse at 23° C. and a relative atmospheric humidity of approximately 70%.
Evaluation is carried out 12 days after the inoculation. 0% means an efficacy which corresponds to that of the untreated control, while an efficacy of 100% means that no infection is observed.

SMILES	Efficacy in % at an active compound concentration in the spray liquor of 100 ppm [%]
Cc1ccc(OCc2ccccc2NC(=O)c2cn(C)nc2C(F)F)c(C)c1 [drawing 526]	95
Cc1ccc(SCc2ccccc2NC(=O)c2cn(C)nc2C(F)F)cc1 [drawing 525]	100
O=C(Nc1ccccc1Oc1ccccc1)c1ccccc1C(F)(F)F [drawing 520]	83
Cn1cc(C(=O)Nc2ccccc2C=Cc2ccccc2)c(C(F)(F)F)n1 [drawing 523]	97
Cc1nc(C(F)(F)F)c(C(=O)Nc2ccccc2Oc2ccccc2)s1	94
Cc1nn(C)cc1C(=O)Nc1ccccc1Oc1ccccc1 [drawing 521]	83
Cn1cc(C(=O)Nc2ccccc2C=Cc2ccccc2)c(C(F)F)n1 [drawing 524]	100
Cc1cccc(OCc2ccccc2NC(=O)c2cn(C)nc2C(F)(F)F)c1 [drawing 527]	90

System: Coriolus versicolor
Assay: Inhibitory test with giant colonies of Basidiomycetes (Coriolus versicolor)
Format: cell-based
Conditions: 1 ppm in agar, after 3 or 7 days at 26° C., vs untreated control
Protocol: (§1) Inhibitory Test with Giant Colonies of Basidiomycetes.
(§2) To produce a suitable preparation of active compound, 0.2 parts by weight of active compound are admixed with 99.8 parts by weight of the abovementioned solvent.
(§3) An agar which has been prepared using malt extract peptone is mixed in the liquid state with the preparation of active compound at the particular desired application rate. After the agar has set, the resulting nutrient medium is incubated at 26° C. with pieces of mycelium which had been punched out of colonies of Coniophora puteana or Coriolus versicolor.
(§4) Evaluation is carried out after 3 or 7 days' storage at 26° C. by measuring the growth of the hypha and scoring the resulting inhibition in percent in comparison to the untreated control. 0% means an inhibition of growth which corresponds to that of the untreated control, while an inhibition of growth of 100% means that no growth of the hypha is observed.

SMILES	Inhibition of the growth of the hypha in % with Coriolus versicolor at an active compound concentration of 1 ppm [%]
Cc1ccc(SCc2ccccc2NC(=O)c2c(C)nn(C)c2Cl)cc1 [Example 45]	90
Cc1nn(C)cc1C(=O)Nc1ccccc1CSc1ccc(Cl)cc1 [Example 81]	90
Cn1cc(C(=O)Nc2ccccc2COc2ccccc2)c(C(F)F)n1 [Example 123]	100
CC1=C(C(=O)Nc2ccccc2COc2ccc(C)cc2)SCCO1 [Example 143]	100
Cc1nc(C(F)(F)F)c(C(=O)Nc2ccccc2CSc2ccc(Cl)cc2)s1 [Example 85]	70
Cc1nn(C)c(Cl)c1C(=O)Nc1ccccc1CSc1ccccc1 [Example 39]	90
Cc1ccc(OCc2ccccc2NC(=O)c2cn(C)nc2C(F)(F)F)c(C)c1 [Example 52]	90
CC1=C(C(=O)Nc2ccccc2OCc2ccc(C)cc2C)SCCO1 [Example 78]	90
Cc1nc(C(F)(F)F)c(C(=O)Nc2ccccc2C=Cc2ccccc2)s1 [Example 5]	70

Same assay, conditions: 3 ppm in agar, after 3 or 7 days at 26° C., vs untreated control

SMILES	Inhibition of the growth of the hypha in % with Coriolus versicolor at an active compound concentration of 3 ppm [%]
Cc1ccc(SCc2ccccc2NC(=O)c2c(C)nn(C)c2Cl)cc1 [Example 45]	100
Cc1nn(C)cc1C(=O)Nc1ccccc1CSc1ccc(Cl)cc1 [Example 81]	90
Cn1cc(C(=O)Nc2ccccc2COc2ccccc2)c(C(F)F)n1 [Example 123]	100
CC1=C(C(=O)Nc2ccccc2COc2ccc(C)cc2)SCCO1 [Example 143]	100
Cc1nc(C(F)(F)F)c(C(=O)Nc2ccccc2CSc2ccc(Cl)cc2)s1 [Example 85]	70
Cc1nn(C)c(Cl)c1C(=O)Nc1ccccc1CSc1ccccc1 [Example 39]	100
Cc1ccc(OCc2ccccc2NC(=O)c2cn(C)nc2C(F)(F)F)c(C)c1 [Example 52]	100
CC1=C(C(=O)Nc2ccccc2OCc2ccc(C)cc2C)SCCO1 [Example 78]	90
Cc1nc(C(F)(F)F)c(C(=O)Nc2ccccc2C=Cc2ccccc2)s1 [Example 5]	90

Same assay, conditions: 6 ppm in agar, after 3 or 7 days at 26° C., vs untreated control

SMILES	Inhibition of the growth of the hypha in % with Coriolus versicolor at an active compound concentration of 6 ppm [%]
Cc1ccc(SCc2ccccc2NC(=O)c2c(C)nn(C)c2Cl)cc1 [Example 45]	100
Cc1nn(C)cc1C(=O)Nc1ccccc1CSc1ccc(Cl)cc1 [Example 81]	100
Cn1cc(C(=O)Nc2ccccc2COc2ccccc2)c(C(F)F)n1 [Example 123]	100
CC1=C(C(=O)Nc2ccccc2COc2ccc(C)cc2)SCCO1 [Example 143]	100
Cc1nc(C(F)(F)F)c(C(=O)Nc2ccccc2CSc2ccc(Cl)cc2)s1 [Example 85]	90
Cc1nn(C)c(Cl)c1C(=O)Nc1ccccc1CSc1ccccc1 [Example 39]	100
Cc1ccc(OCc2ccccc2NC(=O)c2cn(C)nc2C(F)(F)F)c(C)c1 [Example 52]	100
CC1=C(C(=O)Nc2ccccc2OCc2ccc(C)cc2C)SCCO1 [Example 78]	100
Cc1nc(C(F)(F)F)c(C(=O)Nc2ccccc2C=Cc2ccccc2)s1 [Example 5]	100

Same assay, conditions: Trametes versicolor, 1 ppm in agar, after 3 or 7 days at 26° C., vs untreated control, read-out: Inhibition of the growth of the hypha in % with Coriolus versicolor at an active compound concentration of 1 ppm

SMILES	inhibition at 1 ppm [%]
Cn1cc(C(=O)Nc2ccccc2C=Cc2ccccc2)c(C(F)(F)F)n1 [Example 16]	100
Cc1ccc(OCc2ccccc2NC(=O)c2cn(C)nc2C(F)F)c(C)c1 [Example 50]	100

Same assay, conditions: Trametes versicolor, 3 ppm in agar, after 3 or 7 days at 26° C., vs untreated control, read-out: Inhibition of the growth of the hypha in % with Coriolus versicolor at an active compound concentration of 3 ppm

SMILES	inhibition at 3 ppm [%]
Cn1cc(C(=O)Nc2ccccc2C=Cc2ccccc2)c(C(F)(F)F)n1 [Example 16]	100
Cc1ccc(OCc2ccccc2NC(=O)c2cn(C)nc2C(F)F)c(C)c1 [Example 50]	100

Same assay, conditions: Trametes versicolor, 6 ppm in agar, after 3 or 7 days at 26° C., vs untreated control, read-out: Inhibition of the growth of the hypha in % with Coriolus versicolor at an active compound concentration of 6 ppm

SMILES	inhibition at 6 ppm [%]
Cn1cc(C(=O)Nc2ccccc2C=Cc2ccccc2)c(C(F)(F)F)n1 [Example 16]	100
Cc1ccc(OCc2ccccc2NC(=O)c2cn(C)nc2C(F)F)c(C)c1 [Example 50]	100

System: Coniophora puteana
Assay: Inhibitory test with giant colonies of Basidiomycetes (Coniophora puteana)
Format: cell-based
Conditions: 1 ppm in agar, after 3 or 7 days at 26° C., vs untreated control
Protocol: as §1, §2, §3, §4

SMILES	Inhibition of the growth of the hypha in % with Coniophora puteana at an active compound concentration of 1 ppm [%]
Cc1ccc(SCc2ccccc2NC(=O)c2c(C)nn(C)c2Cl)cc1 [Example 45]	70
Cc1nn(C)cc1C(=O)Nc1ccccc1CSc1ccc(Cl)cc1 [Example 81]	70
Cn1cc(C(=O)Nc2ccccc2COc2ccccc2)c(C(F)F)n1 [Example 123]	100
CC1=C(C(=O)Nc2ccccc2COc2ccc(C)cc2)SCCO1 [Example 143]	80
Cc1nc(C(F)(F)F)c(C(=O)Nc2ccccc2CSc2ccc(Cl)cc2)s1 [Example 85]	70
Cc1nn(C)c(Cl)c1C(=O)Nc1ccccc1CSc1ccccc1 [Example 39]	70
Cc1ccc(OCc2ccccc2NC(=O)c2cn(C)nc2C(F)(F)F)c(C)c1 [Example 52]	80
CC1=C(C(=O)Nc2ccccc2OCc2ccc(C)cc2C)SCCO1 [Example 78]	70
Cc1nc(C(F)(F)F)c(C(=O)Nc2ccccc2C=Cc2ccccc2)s1 [Example 5]	70

Same assay, conditions: 1 ppm in agar, after 3 or 7 days at 26° C., vs untreated control, read-out: Inhibition of the growth of the hypha in % with Coniophora puteana at an active compound concentration of 1 ppm

SMILES	inhibition at 1 ppm [%]
Cn1cc(C(=O)Nc2ccccc2C=Cc2ccccc2)c(C(F)(F)F)n1 [Example 16]	80
Cc1ccc(OCc2ccccc2NC(=O)c2cn(C)nc2C(F)F)c(C)c1 [Example 50]	100

Same assay, conditions: 3 ppm in agar, after 3 or 7 days at 26° C., vs untreated control

SMILES	Inhibition of the growth of the hypha in % with Coniophora puteana at an active compound concentration of 3 ppm [%]
Cc1ccc(SCc2ccccc2NC(=O)c2c(C)nn(C)c2Cl)cc1 [Example 45]	80
Cc1nn(C)cc1C(=O)Nc1ccccc1CSc1ccc(Cl)cc1 [Example 81]	90
Cn1cc(C(=O)Nc2ccccc2COc2ccccc2)c(C(F)F)n1 [Example 123]	100
CC1=C(C(=O)Nc2ccccc2COc2ccc(C)cc2)SCCO1 [Example 143]	90
Cc1nc(C(F)(F)F)c(C(=O)Nc2ccccc2CSc2ccc(Cl)cc2)s1 [Example 85]	80
Cc1nn(C)c(Cl)c1C(=O)Nc1ccccc1CSc1ccccc1 [Example 39]	80
Cc1ccc(OCc2ccccc2NC(=O)c2cn(C)nc2C(F)(F)F)c(C)c1 [Example 52]	90
CC1=C(C(=O)Nc2ccccc2OCc2ccc(C)cc2C)SCCO1 [Example 78]	80
Cc1nc(C(F)(F)F)c(C(=O)Nc2ccccc2C=Cc2ccccc2)s1 [Example 5]	80

Same assay, conditions: 3 ppm in agar, after 3 or 7 days at 26° C., vs untreated control, read-out: Inhibition of the growth of the hypha in % with Coniophora puteana at an active compound concentration of 3 ppm

SMILES	inhibition at 3 ppm [%]
Cn1cc(C(=O)Nc2ccccc2C=Cc2ccccc2)c(C(F)(F)F)n1 [Example 16]	100
Cc1ccc(OCc2ccccc2NC(=O)c2cn(C)nc2C(F)F)c(C)c1 [Example 50]	100

Same assay, conditions: 6 ppm in agar, after 3 or 7 days at 26° C., vs untreated control

SMILES	Inhibition of the growth of the hypha in % with Coniophora puteana at an active compound concentration of 6 ppm [%]
Cc1ccc(SCc2ccccc2NC(=O)c2c(C)nn(C)c2Cl)cc1 [Example 45]	90
Cc1nn(C)cc1C(=O)Nc1ccccc1CSc1ccc(Cl)cc1 [Example 81]	100
Cn1cc(C(=O)Nc2ccccc2COc2ccccc2)c(C(F)F)n1 [Example 123]	100
CC1=C(C(=O)Nc2ccccc2COc2ccc(C)cc2)SCCO1 [Example 143]	100
Cc1nc(C(F)(F)F)c(C(=O)Nc2ccccc2CSc2ccc(Cl)cc2)s1 [Example 85]	80
Cc1nn(C)c(Cl)c1C(=O)Nc1ccccc1CSc1ccccc1 [Example 39]	90
Cc1ccc(OCc2ccccc2NC(=O)c2cn(C)nc2C(F)(F)F)c(C)c1 [Example 52]	100
CC1=C(C(=O)Nc2ccccc2OCc2ccc(C)cc2C)SCCO1 [Example 78]	90
Cc1nc(C(F)(F)F)c(C(=O)Nc2ccccc2C=Cc2ccccc2)s1 [Example 5]	100

Same assay, conditions: 6 ppm in agar, after 3 or 7 days at 26° C., vs untreated control, read-out: Inhibition of the growth of the hypha in % with Coniophora puteana at an active compound concentration of 6 ppm

SMILES	inhibition at 6 ppm [%]
Cn1cc(C(=O)Nc2ccccc2C=Cc2ccccc2)c(C(F)(F)F)n1 [Example 16]	100
Cc1ccc(OCc2ccccc2NC(=O)c2cn(C)nc2C(F)F)c(C)c1 [Example 50]	100

System: not given
Assay: not given
Conditions: not given

SMILES	melting point [°C]
Cn1cc(C(=O)Nc2ccccc2Oc2ncnc(F)c2F)c(C(F)(F)F)n1 [Example 3, 2-(4,5-difluoro-pyrimdyl-6-oxy)-1-methyl-3-trifluoro-methyl-1-pyrazole-4-carboxanilide]	197
Cn1cc(C(=O)Nc2ccccc2C=Cc2ccccc2)c(C(F)(F)F)n1 [Example 16]	117
Cc1ccc(OCc2ccccc2NC(=O)c2cn(C)nc2C(F)F)c(C)c1 [Example 50]	120

System: caterpillars of diamond-back moth (Plutella maculipennis)
Assay: Plutella test
Format: in vivo
Conditions: cabbage leaves dipped, active compound concentration 0.1 %
Protocol: To produce a suitable preparation of active compound, 1 part by weight of active compound is mixed with the stated amount of solvent and the stated amount of emulsifier, and the concentrate is diluted with water to the desired concentration.
Cabbage leaves (Brassica oleracea) are treated by being dipped into the preparation of active compound of the desired concentration and are populated with caterpillars of diamond-back moth (Plutella maculipennis) while the leaves are still moist.
After the desired period of time, the kill in % is determined. 100% means that all the caterpillars have been killed; 0% means that none of the caterpillars have been killed.

SMILES	Degree of kill in % after 7 d [%]
Cc1nn(C)cc1C(=O)Nc1ccccc1CSc1ccc(Cl)cc1 [drawing 534]	100
Cc1ccccc1OCc1ccccc1NC(=O)c1ccccc1C(F)(F)F	100
Cc1cccc(COc2ccccc2NC(=O)c2cn(C)nc2C)c1	100
O=C(Nc1ccccc1OCc1ccccc1)C1=C(C(F)(F)F)OCCS1	90
Cc1nc(C(F)(F)F)c(C(=O)Nc2ccccc2CSc2ccccc2)s1 [drawing 531]	100
Cc1ccc(OCc2ccccc2NC(=O)c2cn(C)nc2C(F)F)c(C)c1 [drawing 532]	100
CC1=C(C(=O)Nc2ccccc2OCc2cc(Cl)cc(Cl)c2)SCCO1	100
